{"source": "patent US20080171794A1", "about": "“HUMECTANT COMPOSITION” (TAKASAGO INTERNATIONAL CORPORATION, priority 2007, published 2008)", "test_system": "inside of the forearm", "test": "Skin conductance with time after water supply to the site treated with emollient milk", "assay_type": "in vivo, human", "conditions": "conclusion from Tables 5 and 6; conductance on forearm after water supply", "method": "Each of the emollient milks described in Table 3 was applied to the inside of the forearm in the same manner in Test Example 2, and dried for 30 minutes. A drop of distilled water was placed on that site to conduct water supply for 10 seconds, followed by wiping off. Then, the conductance values were measured with time for 15 minutes (n=3).\nProcess: Emollient milks having the same components as described in Table 3 with the exception that 3-(menthoxy)propane-1,2-diol was substituted by p-menthane-3,8-diol were prepared (Example 3 and Comparative Example 3). Each was applied to the inside of the forearm in an amount of 65 mg/cm^2, and evaluated in the same manner as in Test Example 3."}
{"smiles": "CC1CCC(C(C)(C)O)C(O)C1", "note": "(stereo not shown) [p-menthane-3,8-diol]", "values": [{"measurement": "water-retention function (in words)", "result": "excellent water-retention function"}]}
